# Data reported in patent publication US12171856B2, “Use of salidroside derivative in external preparation for skin whitening” (SHANGHAI CHEERMORE BIOLOGICAL TECHNOLOGY CO., LTD, priority 2019, dated 2024).
# What was measured:
# Kunming mice = experiment: Long-term toxicity test on mouse skin; type: in vivo
# Experimental: Kunming mice were used to conduct the experiment in this section. SP-037 was prepared into solutions with concentrations of 2.5% (mass to volume ratio), 5% (mass to volume ratio), and 10% (mass to volume ratio) using NS. A control group, a 2.5% dosage group, a 5% dosage group, and a 10% dosage group were set, separately. One mouse was used for the blank group, and two mice were used for each of the experimental groups. Application on the dorsal skin: the hair on the back of mice was removed by depilatory cream, and a drug was applied at a corresponding concentration on the bare skin every day, which lasted for 3 months. During the test period, pictures were taken and the body weight of mice were recorded regularly, and it was observed whether there were white spots and other skin irritation or poisoning phenomena.
# Human melanocytes = experiment: Inhibition of NGF/UV-induced melanin generation in human melanocytes (absorbance at 490 nm); type: cell-based; settings: 60 h
# Experimental: (§1) Human melanocytes and tool melanocytes were used to conduct the experiment in this section. Human melanocytes and tool melanocytes were inoculated in a 96-well plate, with a plating density of 5,000 cells/well. After the cells adhered to a wall, nerve growth factor (NGF) was added to the culture and the culture was irradiated with UV to induce the generation of melanin, which simulated a melanin generation process in vivo. Then β-D-glucoside derivatives to be tested each were added at a final concentration of 100 μM to the cells, and the cells were further cultivated in an incubator at 37° C. and 5% CO2 for 60 h, where 3 replicates were set for each group. The cells were washed with pre-cooled phosphate buffered saline (PBS), then digested with trypsin, and centrifuged, and a resulting supernatant was discarded. The cells were lysed with a NaOH (1 mol/L) solution including 10% dimethyl sulfoxide (DMSO) in a 65° C. water bath to make melanin granules completely dissolved out, and the absorbance at 490 nm was determined with a microplate reader. Finally, the absorbance value was used to reflect a melanin content.
# Human melanocytes and tool melanocytes were used to conduct the experiment in this section. Human melanocytes and tool melanocytes were inoculated in a 96-well plate, with a plating density of 5,000 cells/well. After the cells adhered to a wall, NGF was added to the culture and the culture was irradiated with UV to induce the generation of melanin, which simulated a melanin generation process in vivo. SP-037 was added to the cells at 6 concentrations of 0 μM, 12.5 μM, 25 μM, 50 μM, 100 μM, and 200 μM, and then the cells were further cultivated in an incubator at 37° C. and 5% CO2 for 60 h, where 5 replicates were set for each group. The cells were washed with pre-cooled PBS, then digested with trypsin, and centrifuged, and a resulting supernatant was discarded. The cells were lysed with a NaOH (1 mol/L) solution including 10% DMSO in a 65° C. water bath to make melanin granules completely dissolved out, and the absorbance at 490 nm was determined with a microplate reader. Finally, the absorbance value was used to reflect a melanin content.
# Human melanocytes and tool melanocytes were used to conduct the experiment in this section. Human melanocytes and tool melanocytes were inoculated in a 96-well plate, with a plating density of 5,000 cells/well. […] The cells were lysed with a NaOH (1 mol/L) solution including 10% DMSO in a 65° C. water bath to make melanin granules completely dissolved out, and the absorbance at 490 nm was determined with a microplate reader. Finally, the absorbance value was used to reflect a melanin content.
# [1] = system: arm skin of the volunteers; experiment: Human skin irritation test (patch test); type: in vivo; settings: gel with 10% SP-037 in 2% sodium carboxymethyl cellulose
# Experimental: In order to further achieve the use of SP-037 in the field of skin care, it is necessary to ensure the safety of SP-037 first. In the experiment of this section, a gel (2% sodium carboxymethyl cellulose prepared with deionized water) with the main component of 10% SP-037 was prepared, then volunteers were recruited, and a patch test was conducted on the arm skin of the volunteers to evaluate the safety of SP-037.
# tool melanocytes = experiment: Inhibition of NGF/UV-induced melanin generation in tool melanocytes (absorbance at 490 nm); type: cell-based; settings: 60 h, FIG. 6
# Experimental: as §1, with “The cells were washed with pre-cooled phosphate buffered saline (PBS), then digested with trypsin, and centrifuged, and a resulting supernatant was discarded.” left out
# Human melanocytes and tool melanocytes were used to conduct the experiment in this section. […] The cells were lysed with a NaOH (1 mol/L) solution including 10% DMSO in a 65° C. water bath to make melanin granules completely dissolved out, and the absorbance at 490 nm was determined with a microplate reader. Finally, the absorbance value was used to reflect a melanin content. […]
# [2] = system: skin at the inner side of the arm of volunteers with dark skin; experiment: Skin whitening effect in volunteers (Dermalab skin color probe, melanin and L*a*b values); type: in vivo, human
# Experimental: A total of 33 volunteers with dark skin were recruited, and the 33 volunteers were 22 to 38 years old. The 33 volunteers were randomly divided into 7 groups, including: a blank control group: 3, an SP-037 group: 5; a VC group: 5; a kojic acid group: 5; a thiamidol group: 5; a hydroquinone group: 5; and a 377 group: 5. A blank gel and gels with the main components of SP-037, VC, kojic acid, thiamidol, hydroquinone, and 377 respectively were prepared. An inner side of the left arm of each volunteer in each group was washed and then evenly applied with a corresponding gel every day, which lasted for 4 weeks. The Dermalab instrument was used to determine the characteristics of skin at the inner side of the arm with a skin color test probe on day 0, day 14, and day 28 to obtain melanin and L*a*b values, and according to final statistical data, the whitening effect of each component was analyzed.
smiles,measurement,setting,value
OC[C@H]1O[C@@H](OCCc2cc(O)cc(O)c2)[C@H](O)[C@@H](O)[C@@H]1O [SP-037],"white spots, skin irritation injuries or poisoning symptoms","Kunming mice; 2.5%, 5%, 10% (mass to volume) in NS applied daily on dorsal skin","none of the mice has white spots, redness and swelling, and other skin irritation injuries, or poisoning symptoms"
same,changes in the body weight and skin condition,"Kunming mice; 2.5%, 5%, 10% (mass to volume) in NS applied daily on dorsal skin, FIG. 7 and FIG. 8",in line with the growth pattern of normal mice
same,"white spots, skin irritation and toxicity (conclusion of long-term toxicity test)",Kunming mice; at a dosage of 10% (mass to volume ratio),"will not cause white spots, skin irritation, and toxicity"
same,effect of SP-037 on a melanin content,"Human melanocytes; 0-200 μM, human melanocytes and tool melanocytes (not separated in text), FIG. 5",can significantly inhibit the generation of melanin at a cellular level
same,effects of β-D-glucoside derivatives on a melanin content,"Human melanocytes; final concentration 100 μM, human melanocytes and tool melanocytes (not separated in text), FIG. 1",shows the optimal effect
same,inhibitory activity on in vitro simulated melanin generation compared with whitening positive drugs,"Human melanocytes; human melanocytes, FIG. 6","significantly better than that of the positive drugs VC, kojic acid, and hydroquinone"
same,concentration showing an ideal effect on melanin generation,"Human melanocytes; tested at 12.5-200 μM, human melanocytes and tool melanocytes, FIG. 5",50 µM
same,"irritating pain, itching felt by volunteers during patch test",[1],"no irritating pain, itching, or the like"
same,sensitization to the skin (patch test),[1]; FIG. 9,has no sensitization to the skin
same,inhibitory activity on melanin generation compared with whitening positive drugs,tool melanocytes,"significantly better than that of VC and kojic acid, but slightly inferior to that of hydroquinone"
same,effect on melanin content in skin (skin melanin pigmentation),"[2]; gel applied daily for 4 weeks, day 0, 14, 28, FIG. 10",can significantly improve the skin melanin pigmentation
same,effect on skin brightness,"[2]; gel applied daily for 4 weeks, day 0, 14, 28, FIG. 11",improve the skin brightness
same,"whitening effect compared with VC, kojic acid, thiamidol, hydroquinone and 377","[2]; gels applied daily for 4 weeks, FIG. 10 and FIG. 11","significantly better than that of raw materials VC, kojic acid, thiamidol, and hydroquinone currently on the market, but slightly inferior to that of 377"
